Laboratory results published in PMC6410080 (Viruses, 2019).
Counter-ions that a name gives are not always drawn.

These compounds were tested on RRV (assay: microbe, parasite or virus in culture). Conditions: Ross River virus, HeLa Kyoto, read-out: IC50 RRV.
Format: cell-based

Question: With `CCN(CC)Cc1cc(Nc2ccnc3cc(Cl)ccc23)ccc1O` [Amodiaquine, Amodiaquine dihydrochloride dihydrate] as the compound, how does the IC50 read?
Answer: 6.2 µM

Question: `C=C1C(=O)O[C@H]2[C@H]1CC/C(C)=C/CC[C@@]1(C)O[C@@H]21` [Parthenolide] was tested. Which IC50 did it give?
Answer: 7.7 µM

Question: For `CC[C@@]1([C@@H]2O[C@@H]([C@H]3O[C@@](O)(CO)[C@H](C)C[C@@H]3C)C[C@@H]2C)CC[C@H]([C@]2(C)CC[C@]3(C[C@H](O)[C@@H](C)[C@@H]([C@@H](C)[C@@H](OC)[C@H](C)C(=O)O)O3)O2)O1` [Monensin, Monensin sodium salt], which IC50 is on record?
Answer: 4.6 µM

Question: Which IC50 does the source give for `O=C(Nc1ccc([N+](=O)[O-])cc1Cl)c1cc(Cl)ccc1O` [Niclosamide] here?
Answer: 0.82 µM

Question: For `CNc1ccc2oc(C[C@H]3O[C@@]4(CC[C@H]3C)O[C@H]([C@H](C)C(=O)c3ccc[nH]3)[C@H](C)C[C@H]4C)nc2c1C(=O)O` [Calcimycin], which IC50 is on record?
Answer: 6.5 µM

Question: For `O=C1c2c(O)ccc(O)c2C(=O)c2c(NCCNCCO)ccc(NCCNCCO)c21` [Mitoxantrone, Mitoxantrone dihydrochloride], which IC50 is on record?
Answer: 4.9 µM

Question: With `CC(C)COCC(CN(Cc1ccccc1)c1ccccc1)N1CCCC1` (stereo not shown) [Bepridil, Bepridil hydrochloride] as the compound, how does the IC50 read?
Answer: 4.6 µM
